Data reported in US20040019080A1, “Prevention and treatment of migraine and other recurrent headaches using leukotriene LTD4 receptor blocker drugs” (priority 1998, published 2004).
“Also recorded” adds a separate entry of the source. Where two headings read alike, the source gives them in different places.

How the values were obtained:
asthma patients [1] = details: cited from earlier work
asthma patients [2] = details: cited from earlier work; for safety and tolerability in chronic use: used every day over a continuous period of years
[3] = system: patients who suffered from migraine without aura; assay: Open-label clinical trial of daily montelukast in long-term migraine sufferers
patients with migraines = assay: Post-publication and unsolicited patient/physician reports, chronic and emergent migraine treatment; format: in vivo, human; details: unsolicited letters, comments, website posting
Source text: The Applicant herein (Sheftell) initially published their leukotriene-migraine findings in abstract form and as a poster session in mid-1999, at a conference of physicians who specialize in treating headaches. That presentation was summarized shortly thereafter in Family Practice News, a newsletter for physicians, and it was followed in February 2000 by a full article in a refereed journal (Sheftell et al, “Montelukast in the prophylaxis of migraine: “potential role for leukotriene modifiers,” Headache 40: 158-63 (2000)).

LTD4 receptors = target: T1, LTD4 receptors (Homo sapiens, UniProt Q9Y271); details: cited from earlier work
T1 sequence (Q9Y271 1-337): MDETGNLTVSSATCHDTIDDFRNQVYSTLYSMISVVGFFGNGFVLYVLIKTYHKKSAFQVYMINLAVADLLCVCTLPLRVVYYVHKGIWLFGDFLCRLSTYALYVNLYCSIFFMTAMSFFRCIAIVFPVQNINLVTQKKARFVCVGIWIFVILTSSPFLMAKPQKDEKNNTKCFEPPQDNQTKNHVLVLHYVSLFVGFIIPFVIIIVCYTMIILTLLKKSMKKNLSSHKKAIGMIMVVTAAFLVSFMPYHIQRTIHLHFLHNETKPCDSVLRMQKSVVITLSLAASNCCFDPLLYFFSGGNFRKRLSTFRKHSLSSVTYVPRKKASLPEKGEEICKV

LTE4 receptors = details: cited from earlier work
LTC4 receptors = details: cited from earlier work

Compound: CC(c1cc2ccccc2s1)N(O)C(N)=O (stereo not drawn) [zileuton]
- users reporting headaches as unwanted side effect (asthma patients [1]; zileuton 4 times daily at 600 mg, placebo 24.0%): 24.6%

Compound: CC(C)(O)c1ccccc1CC[C@@H](SCC1(CC(=O)O)CC1)c1cccc(/C=C/c2ccc3ccc(Cl)cc3n2)c1 [montelukast]
- asthma patients reporting headaches (asthma patients [1]; nearly 2000 asthma patients tested): 18.4%
- safety and tolerability in chronic use (asthma patients [2]): generally safe, well-tolerated, and free of serious side effects
- adverse events reported by patients ([3]; 3-month treatment, 17 patients): no adverse events were reported; also recorded: None of the patients reported any adverse effects
- patients reporting a decrease in the number of moderate headaches ([3]; all reporting patients): 70%
- number of mild headaches reported during treatment ([3]; mild category, baseline 1.53, mean per month (FIG. 2)): 2.02
- mean number of moderate attacks per month during treatment ([3]; moderate category, baseline 5.5, not statistically significant): 4.68 attacks per month
- patients showing a greater than 60% reduction in the frequency of severe attacks ([3]; montelukast 10 mg tablets daily, 3-month treatment vs 2-month baseline, 17 patients): 41%
- patients with reduction in frequency of severe attacks after dose escalation ([3]; of 4 patients escalated from 10 mg once daily to 10 mg twice daily): 4 patients
- patients with a 33% or greater reduction in the frequency of severe attacks ([3]; of the remaining 15 patients): 13 patients
- mean number of severe attacks per month during treatment ([3]; severe category, baseline 2.78, p<0.025): 1.31 attacks per month

Compound: COc1cc(C(=O)NS(=O)(=O)c2ccccc2C)ccc1Cc1cn(C)c2ccc(NC(=O)OC3CCCC3)cc12 [zafirlukast]
- reported outcome of chronic daily use for migraines (patients with migraines): benefitted more from that treatment than from any other treatment
- asthma patients reporting headaches (asthma patients [1]; more than 4000 asthma patients tested): 12.9%
- blocking / activity at LTD4 receptors (LTD4 receptors): appear to block; also recorded: some level of activity
- blocking / activity at LTE4 receptors (LTE4 receptors): appear to block; also recorded: some level of activity
- blocking of LTC4 receptors (LTC4 receptors): do not appear to block
- time of daily oral ingestion before noticeable effects in reducing the frequency of asthma attacks (asthma patients [2]; tablets, daily oral): about 4 weeks
- safety and tolerability in chronic use (asthma patients [2]): generally safe, well-tolerated, and free of serious side effects
